Measurements as given in patent publication US8877940B2, “Antibiotic tolerance inhibitors” (Institut National de la Recherche Scientifique, priority 2011, dated 2014).
“Also recorded” adds a separate entry of the source.

Experiments:
[1] = system: 4-hydroxy-2-alkylquinoline (HAQ) levels, P. aeruginosa PA14 (MvfR regulon); format: cell-based, Pseudomonas aeruginosa; settings: very low concentrations, nanomolar range
[2] = system: pyocyanin, an MvfR-regulated virulence factor, P. aeruginosa PA14; assay: Quantification of pyocyanin (OD520nm of chloroform-extracted cultures); format: cell-based, Pseudomonas aeruginosa; settings: very low concentrations, nanomolar range
Protocol: Pyocyanin levels were determined by measuring OD520nm of chloroform-extracted cultures.
Compounds were tested at various concentrations for their impact on 4-hydroxy-2-alkylquinoline (HAQ) levels, including the MvfR ligands 4-hydroxy-2-heptylquinoline (HHQ) and 3,4-dihydroxy-2-heptylquinoline (PQS), as well as 2-n-heptyl-4-hydroxyquinoline-N-oxide (HQNO) and 2,4-dihydroxyquinoline (DHQ) (FIGS. 2A-2C). Levels of the phenazine, pyocyanin, an MvfR-regulated virulence factor, were also determined.

[3] = system: Raw264.7 macrophage cells infected with PA14; assay: Viability of PA14-infected macrophage cells (MTT assay); format: cell-based
Protocol: Raw264.7 macrophage cells were cultured in Dulbecco's modified eagles medium (DMEM) containing 10% FCS, 2 mM glutamine and antibiotic-antimycotic solutions. Before infections cells were washed with PBS (without Mg2+ and Ca2+) and antibiotic-free medium was used for infections. The cells were infected with PA14 and PA14 isolates grown in the presence of compounds at an MOI of 100 for 3 h at 37° C. in a 5% CO2 atmosphere. During infections cells were incubated with 100 μM of compounds as well. After 3 hours of PA14 infection, the cells were washed and incubated with DMEM medium containing polymixin B and gentamicin in order to kill the extracellular bacteria. The viability of Raw264.7 was assessed using the MTT assay, which detects the early sign of eukaryotic cell death. The formazan crystals formed in viable, metabolically active cells were dissolved by the addition of 100 μl DMSO and optical density was measured at 570 nm in a microplate reader.
In order to determine whether or not the potent inhibitors are cytotoxic in eukaryotes, Raw 264.7 macrophage cells were exposed to selected compounds. No significant cytotoxicity was observed following compound exposure for 3 hours compared to the DMSO solvent control (FIG. 6A). The cytotoxicity of the macrophage cells was also determined when infected with PA14 bacterial cells alone or in the presence of the compounds.

P. aeruginosa PA14 [4] = assay: Murine burn and infection model, M64 plus ciprofloxacin; format: in vivo, DC-1 mice; settings: IV at 6, 20, 28, 40, 60, 68 and 80 h; M64 100 μM (4 mg/Kg), ciprofloxacin 0.4 mg/Kg; 7 days; un-injected controls 30%
Excerpt: A murine thermal injury model (Stevens et al., J Burn Care Rehabil. 1994; 15:232-235) was used as previously described to further assess bacterial pathogenicity in 6-wk-old DC-1 mice (Rahme et al., Science, 268(5219): p. 1899-902 (1995)) in the presence of combination of Ciprofloxacin (Bayer AG) and M64. Following mouse anesthetization, a full-thickness thermal burn injury involving 5%-8% of the body surface area was produced on the dermis of the shaved abdomen, and an inoculum of about 6-7×10^3 PA14 cells was injected intradermally into the burn eschar along with DMSO or 100 μM M64 compound. 100 μM (4 mg/Kg) of M64, 0.4 mg/Kg of ciprofloxacin (lower than the recommended dose of 10 mg/Kg), or a combination of M64+ciproflocaxin was also injected IV via tail vein at 6, 20, 28, 40, 60, 68 h and 80 h post-infection. Mice survival was subsequently assessed over the course of 7 days. Ten animals per treatment were used. In this set of experiments the concentration of ciprofloxacin used was lower than the therapeutic levels recommended to permit assessment of the possible synergistic effect between M64 and ciprofloxacin.

[5] = target: MvfR binding to pqsA promoter (Pseudomonas aeruginosa, UniProt Q9I4X0)
P. aeruginosa PA14 [6] = assay: Murine burn and infection model; settings: ~100 μM compound/mouse at infection and IV at 6 and 24 h; solvent control 38%
Protocol: A thermal injury mouse model was used as described previously to assess bacterial pathogenicity in 6 week old BALBC mice (Charles River Laboratories). Following mouse anesthetization, a full-thickness thermal burn injury involving 5%-8% of the body surface area was produced on the dermis of the shaved abdomen. An inoculum of 4×10^4 PA14 cells, corresponding to a lethal dose of 50%, was injected intradermally into the burn eschar along with the compound or solvent, prepared as follows: 5 μl of a 50 mM stock in DMSO of compound was added to a solution of 5% CremophorEL/Ethanol (50/50% vol) in 50 μl saline. […] Each mouse also received IV injections of 50 μl of compound or solvent, as prepared above at 6 hours and 24 hours post-infection.
A murine thermal injury and infection model was used to assess the impact of the compounds on P. aeruginosa pathogenesis in animals. Due to the hydrophobic nature of the compounds, 5% CremophorEL/Ethanol (50/50% vol) was used as an emulsifier to dissolve the compound in saline prior to injecting into animals. […] The bacteria and either 100 μM compound/mouse or DMSO control were co-injected at the time of infection. Compounds were also injected 6 hours and 24 hours post-infection.

Sequence of MvfR binding to pqsA promoter (Q9I4X0 whole entry, looked up): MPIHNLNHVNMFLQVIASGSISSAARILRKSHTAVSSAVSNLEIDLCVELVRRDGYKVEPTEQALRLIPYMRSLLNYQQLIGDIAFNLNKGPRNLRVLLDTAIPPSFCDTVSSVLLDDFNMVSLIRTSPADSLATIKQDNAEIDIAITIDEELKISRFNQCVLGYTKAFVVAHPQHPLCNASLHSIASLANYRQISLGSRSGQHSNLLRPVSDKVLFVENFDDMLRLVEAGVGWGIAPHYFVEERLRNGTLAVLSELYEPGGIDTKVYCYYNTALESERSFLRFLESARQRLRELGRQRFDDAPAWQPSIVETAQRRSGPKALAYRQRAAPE

Structure (SMILES): O=C(CSc1nc2ccc([N+](=O)[O-])cc2[nH]1)Nc1ccc(Oc2ccccc2)cc1 [Compound M64, 2-((6-nitro-1H-benzo[d]imidazol-2-yl)thio)-N-(4-phenoxyphenyl)acetamide]
- reduction / inhibition of HAQs [1]: one of the most effective; also recorded: considerably inhibited
- reduction / inhibition of pyocyanin [2]: one of the most effective; also recorded: considerably inhibited
- viability at 100 µM ([3]; Mus musculus, RAW264.7, 3 h, read-out: viable macrophage cells surviving post-infection): 80%
- reduction of PA14-induced cytotoxicity ([3]; PA14 MOI 100, 3 h, 100 μM compound): effectively reduced cytotoxicity
- survival rate (P. aeruginosa PA14 [4]): 75%
- effect on MvfR binding to pqsA promoter (ChIP fold enrichment) [5]: affects MvfR binding to pqsA promoter by competing with the MvfR ligand PQS
- overall surviving mice (P. aeruginosa PA14 [6]): 84%
